From PubChem BioAssay AID330 (DTP/NCI, 2004) come the findings set out here.

Structures are written as SMILES. Values joined by “and” are separate entries in the source; they are usually repeats but may differ in a detail not shown here. Equal values may be shown once. Toxic doses and inconclusive results are not listed.

In the experiment the test system is P388 leukemia ip, CD2F1 mice, survival T/C. Put plainly: NCI In Vivo Anticancer Drug Screen. Data for tumor model P388 Leukemia (intraperitoneal) in CD2F1 (CDF1) mice. The settings on record: endpoint: median survival time, higher = longer survival. The essentials:
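Mice carrying the transplanted tumor received test compound or vehicle. Survival was recorded in each group, and the value is the treated-group measurement divided by that of the vehicle-treated control group.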

[1] abbreviates: dose: 50.0 mg/kg/injection, schedule: Q01DX009 (ip), vehicle: saline.
Setting [2] is: dose: 100.0 mg/kg/injection, schedule: Q01DX009 (ip), vehicle: saline.
Where [3] appears, read: dose: 200.0 mg/kg/injection, schedule: Q01DX009 (ip), vehicle: saline.
The mark [4] stands for this setting: dose: 50.0 mg/kg/injection, schedule: Q01DX009 (ip), vehicle: other.
Setting [5] is: dose: 100.0 mg/kg/injection, schedule: Q01DX009 (ip), vehicle: other.
Where [6] appears, read: dose: 200.0 mg/kg/injection, schedule: Q01DX009 (ip), vehicle: other.
[7] abbreviates: dose: 400.0 mg/kg/injection, schedule: Q01DX009 (ip), vehicle: other.
Where [8] appears, read: dose: 25.0 mg/kg/injection, schedule: Q01DX009 (ip), vehicle: Klucel (hydroxypropylcellulose) (HPC).
Where [9] appears, read: dose: 50.0 mg/kg/injection, schedule: Q01DX009 (ip), vehicle: Klucel (hydroxypropylcellulose) (HPC).
The mark [10] stands for this setting: dose: 25.0 mg/kg/injection, schedule: Q01DX009 (ip), vehicle: other.
Where [11] appears, read: dose: 100.0 mg/kg/injection, schedule: Q04DX003 (ip), vehicle: saline with Tween-80.
Where [12] appears, read: dose: 200.0 mg/kg/injection, schedule: Q04DX003 (ip), vehicle: saline with Tween-80.

Turning to `COc1cc2cc(c1Cl)N(C)C(=O)CC(OC(=O)C(C)N(C)C(=O)C(C)C)C1(C)OC1C(C)C1CC(O)(NC(=O)O1)C(OC)/C=C/C=C(C)C2O` (stereo not given), the T/C is, setting by setting: (dose: 0.02 mg/kg/injection, schedule: Q01DX009 (ip), vehicle: steriod suspending solution) 168 % of control; (dose: 0.05 mg/kg/injection, schedule: Q01DX009 (ip), vehicle: steriod suspending solution) 150 % of control; (dose: 0.1 mg/kg/injection, schedule: Q01DX009 (ip), vehicle: steriod suspending solution) 186 % of control; (dose: 0.2 mg/kg/injection, schedule: Q01DX009 (ip), vehicle: steriod suspending solution) 213 % of control; (dose: 32.0 micrograms/kg/injection, schedule: Q01DX009 (ip), vehicle: distilled water + alcohol) 159 % of control.
`CC(Cl)C(Cl)(Cl)/C=C\[N+](=O)[O-]` (stereo not given): the T/C was 103 % of control under setting [1], 102 % of control under setting [2] and 98 % of control under setting [3].
Regarding `CCCCCCCCCCCCCCCCOc1ccc(C(=O)CC(=O)OC)cc1`, the T/C reads like this: under setting [4], 103 % of control; under setting [5], 100 % of control; under setting [6], 95 % of control; under setting [7], 87 % of control.
In the case of `CCN(CC)CCCN1CC2CC=CCC2C1` (stereo not given), the T/C reads like this: (dose: 50.0 mg/kg/injection, schedule: Q01DX005 (ip), vehicle: saline) 98 % of control; (dose: 100.0 mg/kg/injection, schedule: Q01DX005 (ip), vehicle: saline) 100 % of control; (dose: 200.0 mg/kg/injection, schedule: Q01DX005 (ip), vehicle: saline) 105 % of control.
Turning to `CN(C)CCCC12OC(c3ccccc31)C(O)c1ccccc12` (stereo not given), the T/C is 102 % of control under setting [8]; 103 % of control under setting [9]; 105 % of control (dose: 100.0 mg/kg/injection, schedule: Q01DX009 (ip), vehicle: Klucel (hydroxypropylcellulose) (HPC)); 94 % of control (dose: 200.0 mg/kg/injection, schedule: Q01DX009 (ip), vehicle: Klucel (hydroxypropylcellulose) (HPC)).
In the case of `COC(=O)/C(O)=C(/O)C(=O)OC`, the T/C was 99 % of control (dose: 50.0 mg/kg/injection, schedule: Q01DX005 (ip), vehicle: saline with Tween-80); 100 % of control (dose: 100.0 mg/kg/injection, schedule: Q01DX005 (ip), vehicle: saline with Tween-80); 99 % of control (dose: 200.0 mg/kg/injection, schedule: Q01DX005 (ip), vehicle: saline with Tween-80).
For the compound `CC1=C(C)C2(C)c3ccccc3NC(=S)C12C` (stereo not given), the T/C reads like this: (dose: 100.0 mg/kg/injection, schedule: Q01DX001 (ip), vehicle: Klucel (hydroxypropylcellulose) (HPC)) 101 % of control; (dose: 200.0 mg/kg/injection, schedule: Q01DX001 (ip), vehicle: Klucel (hydroxypropylcellulose) (HPC)) 105 % of control; (dose: 400.0 mg/kg/injection, schedule: Q01DX001 (ip), vehicle: Klucel (hydroxypropylcellulose) (HPC)) 102 % of control.
For `N#CSCc1c(Cl)cccc1Cl`, the T/C runs as follows: under setting [10], 104 % of control; under setting [4], 104 % of control; under setting [5], 103 % of control; under setting [6], 113 % of control.
For `Cc1cnc(/C=N\NC(N)=S)c2cccc(N)c12`, the T/C reads like this: (dose: 1.57 mg/kg/injection, schedule: Q01DX009 (ip), vehicle: saline with Tween-80) 120 % of control; (dose: 3.12 mg/kg/injection, schedule: Q01DX009 (ip), vehicle: saline with Tween-80) 103 % of control; (dose: 4.32 mg/kg/injection, schedule: Q01DX005 (ip), vehicle: clinical formulation) 121 % of control; (dose: 6.25 mg/kg/injection, schedule: Q01DX009 (ip), vehicle: water) 170 % of control; (dose: 12.0 mg/kg/injection, schedule: Q01DX005 (ip), vehicle: clinical formulation) 152 % of control; (dose: 12.5 mg/kg/injection, schedule: Q01DX009 (ip), vehicle: Klucel (hydroxypropylcellulose) (HPC)) 162 % of control and 163 % of control. The T/C reads like this: (dose: 12.5 mg/kg/injection, schedule: Q01DX009 (ip), vehicle: other) 188 % of control; (dose: 12.5 mg/kg/injection, schedule: Q01DX009 (ip), vehicle: saline with Tween-80) 168 % of control; (dose: 12.5 mg/kg/injection, schedule: Q01DX009 (ip), vehicle: saline) 150 % of control; (dose: 12.5 mg/kg/injection, schedule: Q01DX009 (ip), vehicle: water) 189 % of control; (dose: 20.0 mg/kg/injection, schedule: Q01DX005 (ip), vehicle: clinical formulation) 155 % of control; under setting [8], 179 % of control and 193 % of control. Also, the T/C by setting is: under setting [10], 97 % of control; (dose: 25.0 mg/kg/injection, schedule: Q01DX009 (ip), vehicle: saline with Tween-80) 184 % of control; (dose: 25.0 mg/kg/injection, schedule: Q01DX009 (ip), vehicle: saline) 172 % of control; (dose: 25.0 mg/kg/injection, schedule: Q01DX009 (ip), vehicle: water) 218 % of control; under setting [9], 109 % of control.
As for `O=[N+]([O-])c1ccc(S(=O)(=O)O)cc1` (tested in a mixture with another compound), the T/C under setting [11] is 98 % of control; the T/C under setting [12] is 101 % of control; the T/C (dose: 400.0 mg/kg/injection, schedule: Q04DX003 (ip), vehicle: saline with Tween-80) was 86 % of control.
Turning to `CCOC1CC(=O)C2(C)C3CCC4(C)C(C(C)C5CC(C)=C(CO)C(=O)O5)CCC4C3CC3OC32C1O` (stereo not given), the T/C is 101 % of control (dose: 12.67 mg/kg/injection, schedule: Q01DX009 (ip), vehicle: saline + alcohol); 104 % of control (dose: 25.35 mg/kg/injection, schedule: Q01DX009 (ip), vehicle: saline + alcohol); 92 % of control (dose: 50.7 mg/kg/injection, schedule: Q01DX009 (ip), vehicle: saline + alcohol).
For the compound `O=C1OCCC1C(O)c1ccccc1` (stereo not given), the T/C under setting [10] is 110 % of control; the T/C under setting [4] was 102 % of control; the T/C under setting [5] is 110 % of control; the T/C under setting [6] is 107 % of control; the T/C under setting [7] is 111 % of control.
On to `O=C(O)/C=C/C(=O)Nc1ccc(N=Nc2ccccc2)cc1`, for which the T/C (dose: 50.0 mg/kg/injection, schedule: Q04DX003 (ip), vehicle: saline with Tween-80) is 104 % of control; the T/C under setting [11] was 100 % of control; the T/C under setting [12] was 90 % of control.
`Oc1cccnc1CN1CCOCC1`: the T/C is, setting by setting: under setting [1], 101 % of control; under setting [2], 93 % of control; under setting [3], 101 % of control; (dose: 400.0 mg/kg/injection, schedule: Q01DX009 (ip), vehicle: saline) 101 % of control.
In the case of `COc1ccc(-c2cscc2N)cc1`, the T/C is, setting by setting: (dose: 60.0 mg/kg/injection, schedule: Q01DX005 (ip), vehicle: Klucel (hydroxypropylcellulose) (HPC)) 114 % of control; (dose: 120.0 mg/kg/injection, schedule: Q01DX005 (ip), vehicle: Klucel (hydroxypropylcellulose) (HPC)) 118 % of control; (dose: 240.0 mg/kg/injection, schedule: Q01DX005 (ip), vehicle: Klucel (hydroxypropylcellulose) (HPC)) 97 % of control.
For the compound `CN(C)CCCCCC[N+](C)(C)Cc1ccc(C[N+](C)(C)CCCCCC[N+](C)(C)Cc2ccc(CCl)cc2)cc1`, the T/C by setting is: (dose: 3.12 mg/kg/injection, schedule: Q04DX003 (ip), vehicle: saline) 108 % of control; (dose: 6.25 mg/kg/injection, schedule: Q04DX003 (ip), vehicle: saline) 106 % of control; (dose: 12.5 mg/kg/injection, schedule: Q04DX003 (ip), vehicle: saline) 97 % of control.
